Laboratory results published in patent publication US9346795B2, “Substituted sulfonamides useful as antiapoptotic Bcl inhibitors” (Bristol-Myers Squibb Company, priority 2011, dated 2016).

Key:
Bcl-2 = Bcl-2 (Homo sapiens (Human), UniProt P10415); experiment: Bcl-2/Bim Fluorescence Polarization Assay (FPA); assay type: binding
Protocol: Bcl-2/Bim Fluorescence Polarization Assay (FPA)
The assays were performed in black flat-bottom 384-well plates. […] The reaction was incubated at room temperature for 60 minutes and fluorescence polarization of the reaction was detected on the LJL Plate Reader. Inhibition data were calculated from mP values generated by the no protein control reactions for 100% inhibition and vehicle-only reactions for 0% inhibition. The final concentrations of reagents in the assay were 4.9 nM BCL-2, 5 nM fluoresceinated 18-mer BIM peptide and 1% DMSO. […] Compounds were dissolved at 10 mM in dimethylsulfoxide (DMSO) and evaluated at eleven concentrations. IC50 values were derived by non-linear regression analysis.

Bcl-xL = Bcl-xL (Homo sapiens (Human), UniProt Q07817); experiment: Bcl-xL/Bim Fluorescence Resonance Energy Transfer Assay (FRET); assay type: binding
Sequence of Bcl-xL (Q07817 whole entry): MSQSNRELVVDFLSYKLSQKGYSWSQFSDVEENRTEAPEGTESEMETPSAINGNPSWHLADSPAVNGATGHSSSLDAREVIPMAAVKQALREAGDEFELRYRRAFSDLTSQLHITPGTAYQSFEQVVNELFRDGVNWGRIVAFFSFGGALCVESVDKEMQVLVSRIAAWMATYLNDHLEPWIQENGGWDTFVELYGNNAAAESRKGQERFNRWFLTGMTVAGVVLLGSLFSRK
Protocol: Bcl-xL/Bim Fluorescence Resonance Energy Transfer Assay (FRET) The assays were performed in black flat-bottom 384-well plates. The final assay volume was 55 μl prepared from additions of Biotin-Bcl-xL (Bcl-xL: GENBANK® Accession No. […] The reaction was incubated at room temperature for 60 minutes. After 60 minutes, 5 μL of Streptavidin-Terbium FRET detection reagent (Perkin Elmer) was added to the reaction mixture and incubated at room temperature in the dark for 30 mins. […] Compounds were dissolved at 10 mM in dimethylsulfoxide (DMSO) and evaluated at eleven concentrations. IC50 values were derived by non-linear regression analysis.

Sequence of Bcl-2 (P10415 whole entry): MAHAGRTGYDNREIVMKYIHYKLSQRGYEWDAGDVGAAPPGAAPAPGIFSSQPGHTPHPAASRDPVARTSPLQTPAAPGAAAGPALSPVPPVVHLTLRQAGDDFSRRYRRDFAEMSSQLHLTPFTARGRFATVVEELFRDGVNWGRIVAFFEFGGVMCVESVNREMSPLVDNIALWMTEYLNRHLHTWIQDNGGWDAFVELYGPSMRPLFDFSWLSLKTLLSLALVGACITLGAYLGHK

Structure (SMILES) | IC50 (Bcl-2) [nM] | IC50 (Bcl-xL) [nM]
CCCCc1c(-c2ccc(C(=O)NS(=O)(=O)c3ccc4ccccc4c3)cc2C(=O)N2CCc3ccccc3C2)c(CO)nn1-c1ccc(OCC(O)CO)cc1 (racemic) [Example 258, (±)-4-(5-Butyl-1-(4-(2,3-dihydroxypropoxy)phenyl)-3-(hydroxymethyl)-1H-pyrazol-4-yl)-N-(naphthalen-2-ylsulfonyl)-3-(1,2,3,4-tetrahydroisoquinoline-2-carbonyl)benzamide] | 8.13 | 
CCCCN(CCCC)C(=O)c1nn(-c2ccc(C(=O)NS(=O)(=O)c3ccc4ccccc4c3)cc2C(=O)N2CCc3ccccc3C2)c(C)c1Cl [Example 1, N,N-Dibutyl-4-chloro-5-methyl-1-(4-(naphthalen-2-ylsulfonylcarbamoyl)-2-(1,2,3,4-tetrahydroisoquinoline-2-carbonyl)phenyl)-1H-pyrazole-3-carboxamide] | 30 | 20
CCCCN(CCCC)C(=O)c1nn(-c2ccc(C(=O)NS(=O)(=O)c3ccc4c(Cl)cccc4c3)cc2C(=O)N2CCc3ccccc3C2)c(C)c1Cl [Example 2, N,N-dibutyl-4-chloro-1-(4-(5-chloronaphthalen-2-ylsulfonylcarbamoyl)-2-(1,2,3,4-tetrahydroisoquinoline-2-carbonyl)phenyl)-5-methyl-1H-pyrazole-3-carboxamide] | 200 | 30
CCCCN(CCCC)C(=O)c1nn(-c2ccc(C(=O)NS(=O)(=O)c3ccc4cccc(Cl)c4c3)cc2C(=O)N2CCc3ccccc3C2)c(C)c1Cl [Example 5, N,N-dibutyl-4-chloro-1-(4-(8-chloronaphthalen-2-ylsulfonylcarbamoyl)-2-(1,2,3,4-tetrahydroisoquinoline-2-carbonyl)phenyl)-5-methyl-1H-pyrazole-3-carboxamide] | 30 | 70
CCCCN(CCCC)C(=O)c1nn(-c2ccc(C(=O)NS(=O)(=O)c3ccc4cccc(C#N)c4c3)cc2C(=O)N2CCc3ccccc3C2)c(C)c1Cl [Example 8, N,N-dibutyl-4-chloro-1-(4-(8-cyanonaphthalen-2-ylsulfonylcarbamoyl)-2-(1,2,3,4-tetrahydroisoquinoline-2-carbonyl)phenyl)-5-methyl-1H-pyrazole-3-carboxamide] | 920 | 20
CCCCN(CCCC)C(=O)c1nn(-c2ccc(C(=O)NS(=O)(=O)c3ccc4ccc(Cl)cc4c3)cc2C(=O)N2CCc3ccccc3C2)c(C)c1Cl [Example 10, N,N-dibutyl-4-chloro-1-(4-(7-chloronaphthalen-2-ylsulfonylcarbamoyl)-2-(1,2,3,4-tetrahydroisoquinoline-2-carbonyl)phenyl)-5-methyl-1H-pyrazole-3-carboxamide] | 90 | 90
CCCCN(CCCC)C(=O)c1nn(-c2ccc(C(=O)NS(=O)(=O)c3ccc4ccc(I)cc4c3)cc2C(=O)N2CCc3ccccc3C2)c(C)c1Cl [Example 11, N,N-dibutyl-4-chloro-1-(4-(7-iodonaphthalen-2-ylsulfonylcarbamoyl)-2-(1,2,3,4-tetrahydroisoquinoline-2-carbonyl)phenyl)-5-methyl-1H-pyrazole-3-carboxamide] |  | 50
CCCCN(CCCC)C(=O)c1nn(-c2ccc(C(=O)NS(=O)(=O)c3ccc4ccc(OCc5ccccc5)cc4c3)cc2C(=O)N2CCc3ccccc3C2)c(C)c1Cl [Example 18, 1-(4-(7-(benzyloxy)naphthalen-2-ylsulfonylcarbamoyl)-2-(1,2,3,4-tetrahydroisoquinoline-2-carbonyl)phenyl)-N,N-dibutyl-4-chloro-5-methyl-1H-pyrazole-3-carboxamide] | 10 | 30
CCCCN(CCCC)C(=O)c1nn(-c2ccc(C(=O)NS(=O)(=O)c3ccc4ccc(OC(C)C)cc4c3)cc2C(=O)N2CCc3ccccc3C2)c(C)c1Cl [Example 24, N,N-dibutyl-4-chloro-1-(4-(7-isopropoxynaphthalen-2-ylsulfonylcarbamoyl)-2-(1,2,3,4-tetrahydroisoquinoline-2-carbonyl)phenyl)-5-methyl-1H-pyrazole-3-carboxamide] | 50 | 20
CCCCN(CCCC)C(=O)c1nn(-c2ccc(C(=O)NS(=O)(=O)c3ccc4cccc(OCCN5CCOCC5)c4c3)cc2C(=O)N2CCc3ccccc3C2)c(C)c1Cl [Example 27, N,N-dibutyl-4-chloro-5-methyl-1-(4-(8-(2-morpholinoethoxy)naphthalen-2-ylsulfonylcarbamoyl)-2-(1,2,3,4-tetrahydroisoquinoline-2-carbonyl)phenyl)-1H-pyrazole-3-carboxamide] | 110 | 40
CCCCN(CCCC)C(=O)c1nn(-c2ccc(C(=O)NS(=O)(=O)c3ccc4c(N(C)C)ccc(Br)c4c3)cc2C(=O)N2CCc3ccccc3C2)c(C)c1Cl [Example 31, 1-(4-(8-bromo-5-(dimethylamino)naphthalen-2-ylsulfonylcarbamoyl)-2-(1,2,3,4-tetrahydroisoquinoline-2-carbonyl)phenyl)-N,N-dibutyl-4-chloro-5-methyl-1H-pyrazole-3-carboxamide] | 30 | 70
CCCCN(CCCC)C(=O)c1nn(-c2ccc(C(=O)NS(=O)(=O)c3ccc4cccc(OCCCN5CCOCC5)c4c3)cc2C(=O)N2CCc3ccccc3C2)c(C)c1Cl [Example 32, N,N-dibutyl-4-chloro-5-methyl-1-(4-(8-(3-morpholinopropoxy)naphthalen-2-ylsulfonylcarbamoyl)-2-(1,2,3,4-tetrahydroisoquinoline-2-carbonyl)phenyl)-1H-pyrazole-3-carboxamide] | 290 | 50
CCCCN(CCCC)C(=O)c1nn(-c2ccc(C(=O)NS(=O)(=O)c3ccc4ccc(OCCCN5CCOCC5)cc4c3)cc2C(=O)N2CCc3ccccc3C2)c(C)c1Cl [Example 34, N,N-dibutyl-4-chloro-5-methyl-1-(4-(7-(3-morpholinopropoxy)naphthalen-2-ylsulfonylcarbamoyl)-2-(1,2,3,4-tetrahydroisoquinoline-2-carbonyl)phenyl)-1H-pyrazole-3-carboxamide] | 290 | 40
CCCCN(CCCC)C(=O)c1nn(-c2ccc(C(=O)NS(=O)(=O)c3ccc4ccc(OCCCN5CCN(C)CC5)cc4c3)cc2C(=O)N2CCc3ccccc3C2)c(C)c1Cl [Example 35, N,N-dibutyl-4-chloro-5-methyl-1-(4-(7-(3-(4-methylpiperazin-1-yl)propoxy)naphthalen-2-ylsulfonylcarbamoyl)-2-(1,2,3,4-tetrahydroisoquinoline-2-carbonyl)phenyl)-1H-pyrazole-3-carboxamide] | 510 | 40
CCCCN(CCCC)C(=O)c1nn(-c2ccc(C(=O)NS(=O)(=O)c3ccc4ccc(OC(C)CN(C)C)cc4c3)cc2C(=O)N2CCc3ccccc3C2)c(C)c1Cl (stereo not drawn) [Example 37, N,N-dibutyl-4-chloro-1-(4-(7-(1-(dimethylamino)propan-2-yloxy)naphthalen-2-ylsulfonylcarbamoyl)-2-(1,2,3,4-tetrahydroisoquinoline-2-carbonyl)phenyl)-5-methyl-1H-pyrazole-3-carboxamide] | 490 | 10
CCCCN(CCCC)C(=O)c1nn(-c2ccc(C(=O)NS(=O)(=O)c3ccc4ccc(OCCCN(C)C)cc4c3)cc2C(=O)N2CCc3ccccc3C2)c(C)c1Cl [Example 39, N,N-dibutyl-4-chloro-1-(4-(7-(3-(dimethylamino)propoxy)-naphthalen-2-ylsulfonylcarbamoyl)-2-(1,2,3,4-tetrahydroisoquinoline-2-carbonyl)phenyl)-5-methyl-1H-pyrazole-3-carboxamide] | 1460 | 20
CCCCN(CCCC)C(=O)c1nn(-c2ccc(C(=O)NS(=O)(=O)c3ccc4ccc(OCCCN5CCCC5)cc4c3)cc2C(=O)N2CCc3ccccc3C2)c(C)c1Cl [Example 40, N,N-dibutyl-4-chloro-5-methyl-1-(4-(7-(3-(pyrrolidin-1-yl)propoxy)naphthalen-2-ylsulfonylcarbamoyl)-2-(1,2,3,4-tetrahydroisoquinoline-2-carbonyl)phenyl)-1H-pyrazole-3-carboxamide] | 3780 | 30
CCCCN(CCCC)C(=O)c1nn(-c2ccc(C(=O)NS(=O)(=O)c3ccc4c(Cl)ccc(Br)c4c3)cc2C(=O)N2CCc3ccccc3C2)c(C)c1Cl [Example 43, 1-(4-(8-bromo-5-chloronaphthalen-2-ylsulfonylcarbamoyl)-2-(1,2,3,4-tetrahydroisoquinoline-2-carbonyl)phenyl)-N,N-dibutyl-4-chloro-5-methyl-1H-pyrazole-3-carboxamide] | 3.93 | 20
CCCCN(CCCC)C(=O)c1nn(-c2ccc(C(=O)NS(=O)(=O)c3ccc4ccccc4c3)cc2C(=O)N2Cc3ccccc3C[C@H]2CO)c(C)c1Cl [Example 91, N,N-Dibutyl-4-chloro-1-(2-((S)-3-(hydroxymethyl)-1,2,3,4-tetrahydroisoquinoline-2-carbonyl)-4-(naphthalen-2-ylsulfonylcarbamoyl)phenyl)-5-methyl-1H-pyrazole-3-carboxamide] | 50 | 
CCCCN(CCCC)C(=O)c1nn(-c2ccc(C(=O)NS(=O)(=O)c3ccc4ccccc4c3)cc2C(=O)N2Cc3ccccc3C[C@H]2CNC2CCN(C)CC2)c(C)c1Cl [Example 106, N,N-Dibutyl-4-chloro-5-methyl-1-(2-((S)-3-((1-methylpiperidin-4-ylamino)methyl)-1,2,3,4-tetrahydroisoquinoline-2-carbonyl)-4-(naphthalen-2-ylsulfonylcarbamoyl)phenyl)-1H-pyrazole-3-carboxamide] | 20 | 
